This test has as its target T1, Leukotriene A-4 hydrolase (Homo sapiens, UniProt P09960).
T1 sequence (P09960 whole entry): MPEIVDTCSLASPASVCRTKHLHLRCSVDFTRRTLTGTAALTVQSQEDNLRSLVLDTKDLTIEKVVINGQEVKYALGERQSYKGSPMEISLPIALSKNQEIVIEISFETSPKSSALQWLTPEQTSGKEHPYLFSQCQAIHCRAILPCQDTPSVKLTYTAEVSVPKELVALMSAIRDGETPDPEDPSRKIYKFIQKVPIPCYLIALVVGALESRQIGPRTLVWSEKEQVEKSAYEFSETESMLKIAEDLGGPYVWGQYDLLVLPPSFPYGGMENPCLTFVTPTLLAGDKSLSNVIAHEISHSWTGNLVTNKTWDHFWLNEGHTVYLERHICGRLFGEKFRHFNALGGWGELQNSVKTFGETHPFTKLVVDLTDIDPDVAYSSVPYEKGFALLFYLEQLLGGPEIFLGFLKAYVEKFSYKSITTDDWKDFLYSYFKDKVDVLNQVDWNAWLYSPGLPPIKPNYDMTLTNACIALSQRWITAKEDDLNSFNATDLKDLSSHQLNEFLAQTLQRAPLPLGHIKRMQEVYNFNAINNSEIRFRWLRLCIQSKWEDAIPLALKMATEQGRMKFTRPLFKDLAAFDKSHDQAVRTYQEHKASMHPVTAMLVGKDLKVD
The IC50 is the point on the concentration scale where inhibition reaches its midpoint. The low end stands for inhibition by little substance, the high end for a need for much substance. Regarding `CN(CCCOc1ccc(Oc2ccc(-c3ccccc3)cc2)cc1)CCC(=O)O`, half-maximal inhibition (IC50) was put at 0.5 nM.
In turn, `O=C(O)c1ccc(CN2CC3CCCC2C(Nc2ccc(Oc4ccc(-c5ccccc5)cc4)cc2)C3)cc1` (stereo not given) registered an IC50 of 5 nM.
Take `O=C(O)c1ccc(CN2CC3CCCC2C(Nc2ccc(Oc4nc5ccccc5s4)cc2)C3)cc1` (stereo not given): the half-maximal inhibitory concentration (IC50) amounted to 9 nM.
The value for `CC(NC(=O)C(CC(=O)O)Cc1ccccc1)C(=O)O` (stereo not given) was 300 nM.
With `O=C(CC(Cc1ccccc1)C(=O)N1CCCCC1C(=O)O)NO` (stereo not given), the IC50 amounted to 1800 nM.

These data come from ChEMBL document CHEMBL1770068, “Pharmacophore-based virtual screening and Bayesian model for the identification of potential human leukotriene A4 hydrolase inhibitors” (Eur J Med Chem, 2011).
